Laboratory results as given in patent US20040076659A1, “Additive for livestock feeds” (priority 1994, published 2004).

Test system: rumen cellulase activity
Assay: In vitro cellulose degradation by rumen bacterial inoculum
Type: biochemical, cows
Details: 0.25% surfactant in reaction mixture; regression on initial 24 hr
Procedure: A bacterial fraction, largely free of protozoa, was prepared for the fermentation assays by using the procedure of Forsberg, “Some Effects of Arsenic on the Rumen Microflora; An In Vitro Study,” Can. J. Microbiol. 24:36 (1978). The digesta inoculum was resuspended and washed twice in an equivalent amount of 0.1 M phosphate buffer pH 6.8 to the rumen fluid. The inoculum provided both, the substrate and the enzyme used for cellulose degradation assay. Incubation periods were 0, 1.5, 3, 6, 12, 24, and 48 hr. Other incubation conditions were similar to those outlined in experiment 1 above. However, cellulose was determined by the method of Updergraff, supra, for the in vivo digestibility trial. The optimal level of Tween 80 obtained was adopted here and followed.

## polyoxyethylene sorbitan monoleate [Tween 80]
  Initial rate of cellulose degradation: 1.04c (0.32) μg/ml/hr
